Results as given in ChEMBL document CHEMBL1130871, “Korundamine A, a novel HIV-inhibitory and antimalarial "hybrid" naphthylisoquinoline alkaloid heterodimer from Ancistrocladus korupensis” (Bioorg Med Chem Lett, 1998).
≈ marks a conversion by molar mass, not a printed value.

How the values were obtained:
Homo sapiens [1] = species on record: Homo sapiens; assay: Compound was tested for anti HIV-1 activity against MT2/G9106 cell/virus strain; type: functional, organism-based
[2] = tested on: Human immunodeficiency virus 1; assay: Compound was tested for inhibition of cytopathic effects against human immunodeficiency virus type 1 (HIV-1); type: functional, organism-based
CCRF-CEM = assay: Compound was tested for anti HIV-1 activity against CEM-SS/OC100 cell/virus strain; type: functional, cell-based; conditions: Homo sapiens
Homo sapiens [3] = species on record: Homo sapiens; assay: Compound was tested for anti HIV-1 activity against MT2/A17 cell/virus strain; type: functional, organism-based
Plasmodium falciparum = assay: In vitro antimalarial activity against Plasmodium falciparum; type: functional, organism-based

`COc1c2c(cc(O)c1-c1cc(-c3cc(-c4c(O)cc(O)c5c4C[C@@H](C)N[C@@H]5C)c4cc(C)cc(OC)c4c3O)c(O)c3c(OC)cc(C)cc13)C[C@@H](C)N=C2C` showed an EC50 (Homo sapiens [1]) of 6 µM, an EC50 [2] of 2 µM and an EC50 (CCRF-CEM) of 8 µM. It also gave an EC50 (Homo sapiens [3]) of 10 µM and an IC50 (Plasmodium falciparum) of 1.1 µg/mL (≈ 1.43 µM).
